From PubChem BioAssay (NCI)
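These data come from cells grown in 96-well plates and exposed to compound for 48 hours at five concentrations. At the TGI there is no net growth.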

Assays:
Experiment in all cases: NCI anticancer screen, dose series, 48 h
CAKI-1 renal = system: CAKI-1 renal
SK-MEL-5 melanoma = system: SK-MEL-5 melanoma
HL-60(TB) leukemia = system: HL-60(TB) leukemia
HCC-2998 colon = system: HCC-2998 colon
KM12 colon = system: KM12 colon
T-47D breast = system: T-47D breast
MDA-N = system: MDA-N
SF-268 CNS = system: SF-268 CNS
NCI-H522 lung = system: NCI-H522 lung
A498 renal = system: A498 renal
UACC-62 melanoma = system: UACC-62 melanoma
SNB-19 CNS = system: SNB-19 CNS
MDA-MB-435 = system: MDA-MB-435
SR leukemia = system: SR leukemia
U251 CNS = system: U251 CNS
SK-OV-3 ovarian = system: SK-OV-3 ovarian
MCF7 breast = system: MCF7 breast
K-562 leukemia = system: K-562 leukemia
RPMI-8226 leukemia = system: RPMI-8226 leukemia
TK-10 renal = system: TK-10 renal
HOP-92 NSCLC = system: HOP-92 NSCLC
PC-3 prostate = system: PC-3 prostate
HCT-15 colon = system: HCT-15 colon
OVCAR-8 ovarian = system: OVCAR-8 ovarian
MOLT-4 leukemia = system: MOLT-4 leukemia
SK-MEL-2 melanoma = system: SK-MEL-2 melanoma
NCI-H23 lung = system: NCI-H23 lung
OVCAR-5 ovarian = system: OVCAR-5 ovarian
NCI/ADR-RES ovarian = system: NCI/ADR-RES ovarian
HS 578T breast = system: HS 578T breast
UACC-257 melanoma = system: UACC-257 melanoma
HT29 colon = system: HT29 colon
RXF 393 renal = system: RXF 393 renal
COLO 205 colon = system: COLO 205 colon
DU-145 prostate = system: DU-145 prostate
SK-MEL-28 melanoma = system: SK-MEL-28 melanoma
NCI-H460 lung = system: NCI-H460 lung
OVCAR-4 ovarian = system: OVCAR-4 ovarian
UO-31 renal = system: UO-31 renal
LOX IMVI melanoma = system: LOX IMVI melanoma
SNB-75 CNS = system: SNB-75 CNS
SF-539 CNS = system: SF-539 CNS
MALME-3M melanoma = system: MALME-3M melanoma
SN12C renal = system: SN12C renal
IGROV1 ovarian = system: IGROV1 ovarian
EKVX NSCLC = system: EKVX NSCLC
CCRF-CEM leukemia = system: CCRF-CEM leukemia
BT-549 breast = system: BT-549 breast
M14 melanoma = system: M14 melanoma
MDA-MB-231 breast = system: MDA-MB-231 breast
SF-295 CNS = system: SF-295 CNS
ACHN renal = system: ACHN renal
HCT-116 colon = system: HCT-116 colon
OVCAR-3 ovarian = system: OVCAR-3 ovarian
NCI-H226 lung = system: NCI-H226 lung
786-0 renal = system: 786-0 renal
A549 NSCLC = system: A549 NSCLC
SW-620 colon = system: SW-620 colon
HOP-62 NSCLC = system: HOP-62 NSCLC

SMILES: COc1ccc2nc3n[nH]c(N)c3nc2c1
- TGI (CAKI-1 renal): > 90.6 µM
- TGI (SK-MEL-5 melanoma): > 29.1 µM
- TGI (HL-60(TB) leukemia): 4.48 µM
- TGI (HCC-2998 colon): > 74 µM
- TGI (KM12 colon): > 93 µM
- TGI (T-47D breast): 46.5 µM
- TGI (MDA-N): 44.4 µM
- TGI (SF-268 CNS): 23.8 µM
- TGI (NCI-H522 lung): 27.3 µM
- TGI (A498 renal): > 62.3 µM
- TGI (UACC-62 melanoma): 19.8 µM
- TGI (SNB-19 CNS): > 100 µM
- TGI (MDA-MB-435): 72.3 µM
- TGI (SR leukemia): > 78 µM
- TGI (U251 CNS): > 56.3 µM
- TGI (SK-OV-3 ovarian): > 64.9 µM
- TGI (MCF7 breast): > 26.7 µM
- TGI (K-562 leukemia): > 100 µM
- TGI (RPMI-8226 leukemia): 19 µM
- TGI (TK-10 renal): > 75.7 µM
- TGI (HOP-92 NSCLC): 48.6 µM
- TGI (PC-3 prostate): 36.9 µM
- TGI (HCT-15 colon): > 93.7 µM
- TGI (OVCAR-8 ovarian): 32.5 µM
- TGI (MOLT-4 leukemia): > 100 µM
- TGI (SK-MEL-2 melanoma): 17.5 µM
- TGI (NCI-H23 lung): 15.5 µM
- TGI (OVCAR-5 ovarian): > 87.2 µM
- TGI (NCI/ADR-RES ovarian): 33.8 µM
- TGI (HS 578T breast): 23.8 µM
- TGI (UACC-257 melanoma): 90.4 µM
- TGI (HT29 colon): 36.9 µM
- TGI (RXF 393 renal): 5.91 µM
- TGI (COLO 205 colon): 18.9 µM
- TGI (DU-145 prostate): > 49.2 µM
- TGI (SK-MEL-28 melanoma): 42.2 µM
- TGI (NCI-H460 lung): > 84.2 µM
- TGI (OVCAR-4 ovarian): > 87.3 µM
- TGI (UO-31 renal): 55 µM
- TGI (LOX IMVI melanoma): 20.4 µM
- TGI (SNB-75 CNS): 21.7 µM
- TGI (SF-539 CNS): 12 µM
- TGI (MALME-3M melanoma): 69.6 µM
- TGI (SN12C renal): > 69.1 µM
- TGI (IGROV1 ovarian): 17.1 µM
- TGI (EKVX NSCLC): 45.6 µM
- TGI (CCRF-CEM leukemia): > 25.7 µM
- TGI (BT-549 breast): 62.9 µM
- TGI (M14 melanoma): 27.6 µM
- TGI (MDA-MB-231 breast): 64.4 µM
- TGI (SF-295 CNS): > 76.7 µM
- TGI (ACHN renal): > 23.7 µM
- TGI (HCT-116 colon): > 32.8 µM
- TGI (OVCAR-3 ovarian): 38.3 µM
- TGI (NCI-H226 lung): 24.8 µM
- TGI (786-0 renal): > 65.9 µM
- TGI (A549 NSCLC): > 26.5 µM
- TGI (SW-620 colon): 45.9 µM
- TGI (HOP-62 NSCLC): > 76.5 µM

SMILES: C=C1C(=O)O[C@@H]2C[C@@H]3[C@]4(CC[C@]5(C)[C@@H]([C@H](C)CC/C=C(\C)C=O)CC[C@@]35C)C[C@]4(CCC(=O)OC)[C@H]12
- TGI (CAKI-1 renal): 6.7 µM
- TGI (SK-MEL-5 melanoma): 2.3 µM
- TGI (HL-60(TB) leukemia): 1.29 µM
- TGI (HCC-2998 colon): 4.1 µM
- TGI (KM12 colon): 3.89 µM
- TGI (T-47D breast): 4.93 µM
- TGI (MDA-N): 3.42 µM
- TGI (SF-268 CNS): 2.73 µM
- TGI (NCI-H522 lung): 8.91 µM
- TGI (A498 renal): 5.33 µM
- TGI (UACC-62 melanoma): 3.06 µM
- TGI (SNB-19 CNS): 3.9 µM
- TGI (MDA-MB-435): 3.16 µM
- TGI (SR leukemia): 2.32 µM
- TGI (U251 CNS): 2.86 µM
- TGI (SK-OV-3 ovarian): 6.72 µM
- TGI (MCF7 breast): 2.9 µM
- TGI (K-562 leukemia): 2.67 µM
- TGI (RPMI-8226 leukemia): 1.22 µM
- TGI (TK-10 renal): 3.99 µM
- TGI (HOP-92 NSCLC): 3.88 µM
- TGI (PC-3 prostate): 4.48 µM
- TGI (HCT-15 colon): 3.71 µM
- TGI (OVCAR-8 ovarian): 2.15 µM
- TGI (MOLT-4 leukemia): 2.94 µM
- TGI (SK-MEL-2 melanoma): 3.43 µM
- TGI (NCI-H23 lung): 3.77 µM
- TGI (OVCAR-5 ovarian): 3.96 µM
- TGI (NCI/ADR-RES ovarian): 7.99 µM
- TGI (HS 578T breast): 6.77 µM
- TGI (UACC-257 melanoma): 1.13 µM
- TGI (HT29 colon): 11 µM
- TGI (RXF 393 renal): 3.56 µM
- TGI (COLO 205 colon): 5.64 µM
- TGI (DU-145 prostate): 3.31 µM
- TGI (SK-MEL-28 melanoma): 3.99 µM
- TGI (NCI-H460 lung): 9.13 µM
- TGI (OVCAR-4 ovarian): 3.62 µM
- TGI (UO-31 renal): 3.53 µM
- TGI (LOX IMVI melanoma): 2.61 µM
- TGI (SNB-75 CNS): 4.51 µM
- TGI (SF-539 CNS): 4.22 µM
- TGI (MALME-3M melanoma): 3.05 µM
- TGI (SN12C renal): 3.85 µM
- TGI (IGROV1 ovarian): 4.63 µM
- TGI (EKVX NSCLC): 7.55 µM
- TGI (CCRF-CEM leukemia): 0.617 µM
- TGI (BT-549 breast): 5.01 µM
- TGI (M14 melanoma): 2.91 µM
- TGI (MDA-MB-231 breast): 3.66 µM
- TGI (SF-295 CNS): 4.54 µM
- TGI (ACHN renal): 3.89 µM
- TGI (HCT-116 colon): 2.03 µM
- TGI (OVCAR-3 ovarian): 3.02 µM
- TGI (NCI-H226 lung): 10.8 µM
- TGI (786-0 renal): 3.23 µM
- TGI (A549 NSCLC): 13.9 µM
- TGI (SW-620 colon): 4.11 µM
- TGI (HOP-62 NSCLC): 4.21 µM
